Data taken from US9546156B2, “N-bicyclic aryl,N'-pyrazolyl urea, thiourea, guanidine cyanoguanidine compounds as TrkA kinase inhibitors” (Array BioPharma Inc., priority 2012, dated 2017).

What was measured:
Test in all cases: Off-target kinase profiling (KinaseProfiler)
Assay type in all cases: biochemical
Conditions in all cases: 10 μM, ATP near Km
AKT2 = molecular target: T1, AKT2 (Homo sapiens, UniProt P31751)
T1 construct: purchased Millipore, Inc. (KinaseProfiler service)
Method: (§1) A representative compound (Example 16) of the invention was tested for off-target kinase activity at a concentration of 10 μM by Millipore, Inc. in their KinaseProfiler™ service against all the kinases available in their full kinase panel. The compound was run in duplicate at a concentration of ATP near the Km for each individual kinase according to Millipore's specifications. The results are shown in Table B. Data are reported as percent of control (POC) and are the average of the two replicates.

ALK4 = molecular target: T2, ALK4 (Homo sapiens, UniProt P36896)
T2 construct: purchased Millipore, Inc. (KinaseProfiler service)
Method: as §1

Abl-P = molecular target: T3, Abl-P (Homo sapiens, UniProt P00519)
T3 construct: purchased Millipore, Inc. (KinaseProfiler service)
Method: as §1

Bmx = molecular target: T4, Bmx (Homo sapiens, UniProt P51813)
T4 construct: purchased Millipore, Inc. (KinaseProfiler service)
Method: as §1

CAMK1 = molecular target: T5, CAMK1 (Homo sapiens, UniProt Q14012)
T5 construct: purchased Millipore, Inc. (KinaseProfiler service)
Method: as §1

CDK3/cyclinE = molecular target: T6, CDK3/cyclinE (Homo sapiens, UniProt Q00526)
T6 construct: purchased Millipore, Inc. (KinaseProfiler service)
Method: as §1

CDK5/p25 = molecular target: T7, CDK5/p25 (Homo sapiens, UniProt Q00535)
T7 construct: purchased Millipore, Inc. (KinaseProfiler service)
Method: as §1

CDK5/p35 = molecular target: T8, CDK5/p35 (Homo sapiens, UniProt Q00535)
T8 construct: purchased Millipore, Inc. (KinaseProfiler service)
Method: as §1

CDK6/cyclinD3 = molecular target: T9, CDK6/cyclinD3 (Homo sapiens, UniProt Q00534)
T9 construct: purchased Millipore, Inc. (KinaseProfiler service)
Method: as §1

CDK7/cyclinH/MAT1 = molecular target: T10, CDK7/cyclinH/MAT1 (Homo sapiens, UniProt P50613)
T10 construct: purchased Millipore, Inc. (KinaseProfiler service)
Method: as §1

CK1delta = molecular target: T11, CK1delta (Homo sapiens, UniProt P48730)
T11 construct: purchased Millipore, Inc. (KinaseProfiler service)
Method: as §1

CSK = molecular target: T12, CSK (Homo sapiens, UniProt P41240)
T12 construct: purchased Millipore, Inc. (KinaseProfiler service)
Method: as §1

ERK2 = molecular target: T13, ERK2 (Homo sapiens, UniProt P28482)
T13 construct: purchased Millipore, Inc. (KinaseProfiler service)
Method: as §1

EphA2 = molecular target: T14, EphA2 (Homo sapiens, UniProt P29317)
T14 construct: purchased Millipore, Inc. (KinaseProfiler service)
Method: as §1

EphA4 = molecular target: T15, EphA4 (Homo sapiens, UniProt P54764)
T15 construct: purchased Millipore, Inc. (KinaseProfiler service)
Method: as §1

Fes = molecular target: T16, Fes (Homo sapiens, UniProt P07332)
T16 construct: purchased Millipore, Inc. (KinaseProfiler service)
Method: as §1

Flt3 = molecular target: T17, Flt3 (Homo sapiens, UniProt P36888)
T17 construct: purchased Millipore, Inc. (KinaseProfiler service)
Method: as §1

Haspin = molecular target: T18, Haspin (Homo sapiens, UniProt Q8TF76)
T18 construct: purchased Millipore, Inc. (KinaseProfiler service)
Method: as §1

IRAK4 = molecular target: T19, IRAK4 (Homo sapiens, UniProt Q9NWZ3)
T19 construct: purchased Millipore, Inc. (KinaseProfiler service)
Method: as §1

LIMK1 = molecular target: T20, LIMK1 (Homo sapiens, UniProt P53667)
T20 construct: purchased Millipore, Inc. (KinaseProfiler service)
Method: as §1

Lyn = molecular target: T21, Lyn (Homo sapiens, UniProt P07948)
T21 construct: purchased Millipore, Inc. (KinaseProfiler service)
Method: as §1

MAP4K2 = molecular target: T22, MAP4K2 (Homo sapiens, UniProt Q12851)
T22 construct: purchased Millipore, Inc. (KinaseProfiler service)
Method: as §1

MAPKAP-K5 = molecular target: T23, MAPKAP-K5 (Homo sapiens, UniProt Q8IW41)
T23 construct: purchased Millipore, Inc. (KinaseProfiler service)
Method: as §1

MLK1 = molecular target: T24, MLK1 (Homo sapiens, UniProt P80192)
T24 construct: purchased Millipore, Inc. (KinaseProfiler service)
Method: as §1

MST3 = molecular target: T25, MST3 (Homo sapiens, UniProt Q9Y6E0)
T25 construct: purchased Millipore, Inc. (KinaseProfiler service)
Method: as §1

Met = molecular target: T26, Met (Homo sapiens, UniProt P08581)
T26 construct: purchased Millipore, Inc. (KinaseProfiler service)
Method: as §1

MuSK = molecular target: T27, MuSK (Homo sapiens, UniProt O15146)
T27 construct: purchased Millipore, Inc. (KinaseProfiler service)
Method: as §1

PKCdelta = molecular target: T28, PKCdelta (Homo sapiens, UniProt Q05655)
T28 construct: purchased Millipore, Inc. (KinaseProfiler service)
Method: as §1

PKCgamma = molecular target: T29, PKCgamma (Homo sapiens, UniProt P05129)
T29 construct: purchased Millipore, Inc. (KinaseProfiler service)
Method: as §1

PhKgamma2 = molecular target: T30, PhKgamma2 (Homo sapiens, UniProt P15735)
T30 construct: purchased Millipore, Inc. (KinaseProfiler service)
Method: as §1

Pim-2 = molecular target: T31, Pim-2 (Homo sapiens, UniProt Q9P1W9)
T31 construct: purchased Millipore, Inc. (KinaseProfiler service)
Method: as §1

Plk3 = molecular target: T32, Plk3 (Homo sapiens, UniProt Q9H4B4)
T32 construct: purchased Millipore, Inc. (KinaseProfiler service)
Method: as §1

PrKX = molecular target: T33, PrKX (Homo sapiens, UniProt P51817)
T33 construct: purchased Millipore, Inc. (KinaseProfiler service)
Method: as §1

Ron = molecular target: T34, Ron (Homo sapiens, UniProt Q04912)
T34 construct: purchased Millipore, Inc. (KinaseProfiler service)
Method: as §1

STK33 = molecular target: T35, STK33 (Homo sapiens, UniProt Q9BYT3)
T35 construct: purchased Millipore, Inc. (KinaseProfiler service)
Method: as §1

TAO3 = molecular target: T36, TAO3 (Homo sapiens, UniProt Q9H2K8)
T36 construct: purchased Millipore, Inc. (KinaseProfiler service)
Method: as §1

TSSK2 = molecular target: T37, TSSK2 (Homo sapiens, UniProt Q96PF2)
T37 construct: purchased Millipore, Inc. (KinaseProfiler service)
Method: as §1

WNK2 = molecular target: T38, WNK2 (Homo sapiens, UniProt Q9Y3S1)
T38 construct: purchased Millipore, Inc. (KinaseProfiler service)
Method: as §1

mTOR/FKBP12 = molecular target: T39, mTOR/FKBP12 (Homo sapiens, UniProt P42345)
T39 construct: purchased Millipore, Inc. (KinaseProfiler service)
Method: as §1

p38alpha = molecular target: T40, p38alpha (Homo sapiens, UniProt Q16539)
T40 construct: purchased Millipore, Inc. (KinaseProfiler service)
Method: as §1

p38delta = molecular target: T41, p38delta (Homo sapiens, UniProt O15264)
T41 construct: purchased Millipore, Inc. (KinaseProfiler service)
Method: as §1

T37 sequence (Q96PF2 whole entry): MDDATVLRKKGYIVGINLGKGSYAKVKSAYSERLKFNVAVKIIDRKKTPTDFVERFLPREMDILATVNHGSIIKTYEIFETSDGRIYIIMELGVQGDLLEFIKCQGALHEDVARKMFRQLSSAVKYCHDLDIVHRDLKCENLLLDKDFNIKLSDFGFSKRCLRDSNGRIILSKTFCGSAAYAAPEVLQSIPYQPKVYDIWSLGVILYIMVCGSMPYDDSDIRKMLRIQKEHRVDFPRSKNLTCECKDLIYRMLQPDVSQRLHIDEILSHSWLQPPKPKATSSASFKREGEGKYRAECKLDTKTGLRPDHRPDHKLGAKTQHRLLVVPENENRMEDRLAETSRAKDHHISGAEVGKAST
T4 sequence (P51813 whole entry): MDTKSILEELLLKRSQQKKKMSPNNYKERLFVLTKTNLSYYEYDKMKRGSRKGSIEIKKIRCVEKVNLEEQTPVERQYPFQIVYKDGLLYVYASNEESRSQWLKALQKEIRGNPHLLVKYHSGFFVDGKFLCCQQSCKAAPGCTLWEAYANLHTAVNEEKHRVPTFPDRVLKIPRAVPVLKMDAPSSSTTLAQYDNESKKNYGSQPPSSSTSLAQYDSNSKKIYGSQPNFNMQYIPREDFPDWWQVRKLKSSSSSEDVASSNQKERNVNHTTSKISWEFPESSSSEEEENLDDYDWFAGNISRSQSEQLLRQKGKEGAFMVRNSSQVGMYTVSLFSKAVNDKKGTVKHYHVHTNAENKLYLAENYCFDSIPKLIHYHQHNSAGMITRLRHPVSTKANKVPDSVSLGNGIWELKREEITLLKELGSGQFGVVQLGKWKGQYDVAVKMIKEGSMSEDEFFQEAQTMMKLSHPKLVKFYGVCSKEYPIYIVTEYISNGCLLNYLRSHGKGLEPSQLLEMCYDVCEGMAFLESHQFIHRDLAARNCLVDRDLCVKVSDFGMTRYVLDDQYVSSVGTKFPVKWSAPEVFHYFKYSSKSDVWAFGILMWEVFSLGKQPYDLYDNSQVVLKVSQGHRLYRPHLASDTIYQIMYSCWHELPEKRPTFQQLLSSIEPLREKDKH
T18 sequence (Q8TF76 whole entry): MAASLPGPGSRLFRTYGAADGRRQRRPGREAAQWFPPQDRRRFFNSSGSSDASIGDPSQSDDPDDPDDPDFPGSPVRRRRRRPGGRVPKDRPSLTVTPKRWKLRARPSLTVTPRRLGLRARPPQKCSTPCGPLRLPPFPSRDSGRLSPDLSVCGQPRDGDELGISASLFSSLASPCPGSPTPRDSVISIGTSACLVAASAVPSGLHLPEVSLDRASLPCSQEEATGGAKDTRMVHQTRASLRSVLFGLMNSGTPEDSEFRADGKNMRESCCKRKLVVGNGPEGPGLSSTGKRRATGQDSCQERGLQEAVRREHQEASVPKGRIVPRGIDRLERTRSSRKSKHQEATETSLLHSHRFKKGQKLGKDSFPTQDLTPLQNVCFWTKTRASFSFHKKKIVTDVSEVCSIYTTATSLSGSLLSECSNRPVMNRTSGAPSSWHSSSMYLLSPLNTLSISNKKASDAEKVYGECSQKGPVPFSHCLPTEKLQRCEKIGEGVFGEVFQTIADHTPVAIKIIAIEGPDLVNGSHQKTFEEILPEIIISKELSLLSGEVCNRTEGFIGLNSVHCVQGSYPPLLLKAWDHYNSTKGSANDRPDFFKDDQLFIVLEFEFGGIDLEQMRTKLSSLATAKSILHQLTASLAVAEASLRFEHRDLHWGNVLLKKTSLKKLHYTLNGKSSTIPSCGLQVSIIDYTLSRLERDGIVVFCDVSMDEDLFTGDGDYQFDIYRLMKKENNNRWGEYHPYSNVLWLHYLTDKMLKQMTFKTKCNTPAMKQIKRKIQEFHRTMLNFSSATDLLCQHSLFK
T10 sequence (P50613 whole entry): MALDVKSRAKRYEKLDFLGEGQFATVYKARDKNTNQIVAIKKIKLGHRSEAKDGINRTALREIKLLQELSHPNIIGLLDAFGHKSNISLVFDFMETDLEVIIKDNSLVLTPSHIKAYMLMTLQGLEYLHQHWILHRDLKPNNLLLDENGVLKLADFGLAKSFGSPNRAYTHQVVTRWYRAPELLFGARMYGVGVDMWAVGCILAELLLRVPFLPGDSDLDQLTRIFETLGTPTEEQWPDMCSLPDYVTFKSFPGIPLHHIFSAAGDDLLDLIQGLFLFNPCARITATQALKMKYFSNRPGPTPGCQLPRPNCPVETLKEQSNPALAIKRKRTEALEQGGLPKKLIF
T10 sequence (P51946 whole entry partner): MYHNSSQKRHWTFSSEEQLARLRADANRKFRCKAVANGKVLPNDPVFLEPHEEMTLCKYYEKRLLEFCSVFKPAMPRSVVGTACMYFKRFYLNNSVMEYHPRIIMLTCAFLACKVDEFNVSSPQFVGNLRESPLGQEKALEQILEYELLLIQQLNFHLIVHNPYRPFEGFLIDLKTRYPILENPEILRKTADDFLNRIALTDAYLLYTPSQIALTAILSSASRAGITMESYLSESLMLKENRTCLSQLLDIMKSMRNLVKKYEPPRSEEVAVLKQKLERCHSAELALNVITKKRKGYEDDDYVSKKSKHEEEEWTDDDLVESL
T10 sequence (P51948 whole entry partner): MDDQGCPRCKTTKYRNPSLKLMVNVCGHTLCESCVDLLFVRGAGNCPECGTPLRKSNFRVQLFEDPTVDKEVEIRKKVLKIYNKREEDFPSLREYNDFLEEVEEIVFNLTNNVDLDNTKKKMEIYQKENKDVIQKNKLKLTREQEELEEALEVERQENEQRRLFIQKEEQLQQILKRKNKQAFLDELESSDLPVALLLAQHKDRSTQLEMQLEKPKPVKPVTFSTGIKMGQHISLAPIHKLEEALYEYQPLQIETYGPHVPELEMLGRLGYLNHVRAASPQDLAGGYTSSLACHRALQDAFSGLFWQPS
T35 sequence (Q9BYT3 whole entry): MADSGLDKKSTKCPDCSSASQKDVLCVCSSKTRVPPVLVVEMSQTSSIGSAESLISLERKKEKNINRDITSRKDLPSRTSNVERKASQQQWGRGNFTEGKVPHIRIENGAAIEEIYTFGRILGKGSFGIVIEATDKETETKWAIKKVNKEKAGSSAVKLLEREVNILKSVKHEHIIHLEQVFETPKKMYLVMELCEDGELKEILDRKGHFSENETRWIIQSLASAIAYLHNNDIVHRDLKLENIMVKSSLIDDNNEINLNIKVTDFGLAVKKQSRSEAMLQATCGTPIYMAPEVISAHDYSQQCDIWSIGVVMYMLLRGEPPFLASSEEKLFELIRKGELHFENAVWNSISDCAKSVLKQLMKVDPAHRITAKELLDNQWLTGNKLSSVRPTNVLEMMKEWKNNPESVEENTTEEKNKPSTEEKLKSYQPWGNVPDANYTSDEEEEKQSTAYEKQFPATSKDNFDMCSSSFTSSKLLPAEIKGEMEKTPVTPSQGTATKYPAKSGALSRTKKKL
T41 sequence (O15264 whole entry): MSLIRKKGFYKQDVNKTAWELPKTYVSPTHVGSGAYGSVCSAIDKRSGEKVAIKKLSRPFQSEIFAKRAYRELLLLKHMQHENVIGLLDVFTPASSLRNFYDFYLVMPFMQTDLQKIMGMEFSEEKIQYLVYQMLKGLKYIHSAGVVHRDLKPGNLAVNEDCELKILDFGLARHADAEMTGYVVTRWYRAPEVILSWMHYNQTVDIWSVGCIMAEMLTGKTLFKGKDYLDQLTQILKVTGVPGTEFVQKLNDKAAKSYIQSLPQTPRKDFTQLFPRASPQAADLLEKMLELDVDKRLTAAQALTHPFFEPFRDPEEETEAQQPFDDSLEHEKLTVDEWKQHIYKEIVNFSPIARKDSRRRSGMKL
T21 sequence (P07948 whole entry): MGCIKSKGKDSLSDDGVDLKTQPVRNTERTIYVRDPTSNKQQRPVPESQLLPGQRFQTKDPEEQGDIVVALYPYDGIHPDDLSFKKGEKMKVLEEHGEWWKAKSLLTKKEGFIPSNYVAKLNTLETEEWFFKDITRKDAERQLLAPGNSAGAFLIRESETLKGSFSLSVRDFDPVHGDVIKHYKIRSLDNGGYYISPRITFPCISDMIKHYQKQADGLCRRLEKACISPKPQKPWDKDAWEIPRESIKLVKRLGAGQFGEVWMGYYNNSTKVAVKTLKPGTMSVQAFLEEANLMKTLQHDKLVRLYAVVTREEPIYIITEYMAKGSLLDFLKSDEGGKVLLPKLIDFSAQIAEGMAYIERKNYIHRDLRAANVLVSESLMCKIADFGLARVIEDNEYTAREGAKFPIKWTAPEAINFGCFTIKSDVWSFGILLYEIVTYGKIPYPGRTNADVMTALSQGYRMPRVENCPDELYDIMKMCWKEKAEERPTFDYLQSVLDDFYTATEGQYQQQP

Avg POC (AKT2): 217.5 POC
Avg POC (ALK4): 104.5 POC
Avg POC (Abl-P): 147 POC
Avg POC (Bmx): 125 POC
Avg POC (CAMK1): 106 POC
Avg POC (CDK3/cyclinE): 125 POC
Avg POC (CDK5/p25): 110.5 POC
Avg POC (CDK5/p35): 123.5 POC
Avg POC (CDK6/cyclinD3): 121 POC
Avg POC (CDK7/cyclinH/MAT1): 121.5 POC
Avg POC (CK1delta): 127.5 POC
Avg POC (CSK): 132 POC
Avg POC (ERK2): 116.5 POC
Avg POC (EphA2): 123.5 POC
Avg POC (EphA4): 100.5 POC
Avg POC (Fes): 117.5 POC
Avg POC (Flt3): 121.5 POC
Avg POC (Haspin): 137.5 POC
Avg POC (IRAK4): 175.5 POC
Avg POC (LIMK1): 105.5 POC
Avg POC (Lyn): 112 POC
Avg POC (MAP4K2): 110.5 POC
Avg POC (MAPKAP-K5): 122.5 POC
Avg POC (MLK1): 106 POC
Avg POC (MST3): 135 POC
Avg POC (Met): 130 POC
Avg POC (MuSK): 94 POC
Avg POC (PKCdelta): 111.5 POC
Avg POC (PKCgamma): 100.5 POC
Avg POC (PhKgamma2): 118 POC
Avg POC (Pim-2): 141.5 POC
Avg POC (Plk3): 103.5 POC
Avg POC (PrKX): 134 POC
Avg POC (Ron): 117 POC
Avg POC (STK33): 106 POC
Avg POC (TAO3): 89.5 POC
Avg POC (TSSK2): 134 POC
Avg POC (WNK2): 122.5 POC
Avg POC (mTOR/FKBP12): 113 POC
Avg POC (p38alpha): 117 POC
Avg POC (p38delta): 121 POC
SMILES: COCc1ccc2cccc(NC(=O)Nc3c(C)c(-c4cnn(C)c4)nn3-c3ccccc3)c2c1 [Example 16, 1-(1′,4-dimethyl-1-phenyl-1H,1′H-[3,4′-bipyrazol]-5-yl)-3-(7-(methoxymethyl)naphthalen-1-yl)urea]
